Patent EP1488698A1, “Compositions for descreasing intracellular inositol trisphosphate concentration and uses thereof” (priority 1995, dated 1997)
Marks after values point to notes of the source that are not given here.

Experiments:
[1] = test system: primary chick cortical neurons; test: Phosphoinositide hydrolysis assay (InsP3 production) in cultured primary cortical neurons; format: cell-based; settings: for fold induction at 100 µM: Gallus gallus, Cortical neurone, 20 min, read-out: Ins-P-n
Method: The neurons were seeded in 24-well plastic tissue culture plates that had been coated with L-polylysine.
Receptor-stimulated and basal unstimulated hydrolysis of phosphoinositides was measured by the following procedure. […] The cells were then washed twice with 1 ml Dulbecco's phosphate-buffered saline (PBS) and 0.5 ml of PBS containing 4.5 g/L glucose was added. Sphingosine, psychosine, lysosulphatide, or lysosphingomyelin, prepared as the hydrochloride salt dissolved in water, were then added to produce the desired extracellular concentration in specific wells, […] The cells were then washed twice with 1 ml PBS, and pre-incubated for 15 minutes at 37°C with 0.5 ml PBS containing 10 mM LiCl and the compound to be tested was added. […] The tubes were vortexed thoroughly, then centrifuged at 500 x g for 5 minutes to separate the aqueous and chloroform phases. For each sample, a 1.5-ml aliquot of the upper (aqueous) phase was applied to a small column containing BioRad AG1X8 resin (formate form). Free [^3H]inositol and [^3H]glycerophosphoinositol were washed through the column with 5 ml of a solution containing 5 mM sodium borate and 60 mM sodium formate. The total phosphorylated [^3H] inositol fraction was eluted from the column for radiometric scintillation spectrometry analysis with 3 ml 1.0 M ammonium formate/0.1 M formic acid.
In addition, a 0.5 ml aliquot of the lower (chloroform) phase of each sample was analyzed radiometrically by scintillation spectrometry in order to determine the quantity of lipid-bound [^3H]myo-inositol. Estimation of phosphoinositide hydrolysis by phospholipase C is based upon the quantity of [^3H]inositol phosphates produced, and is expressed as the percentage of the latter relative to total free and componential [^3H]inositol (dpm ammonium formate + dpm chloroform fractions).

cultured neurons = test: Lysosphingolipid content of cultured neurons by NBDZF fluorescence tagging; format: cell-based, chick
Description: Agonist-binding to metabotropic receptors influences the levels of lysosphingolipid in neuronal membranes. However, there is no convenient methodology available for the measurement of lysosphingolipid content in cultured neurons. As a result, a sensitive method of fluorometric tracing has been devised and is described herein. The measurement of lysosphingolipid content in cultured neurons is based on the stable fluorescence-tagging procedure using 4-fluoro, 7-nitrobenzofuran (NBDZF) described by Nozowa et al J. Neutochem. 59:607-609, 1992). The procedure was applied to: resting neurons; neurons exposed to 100 µM metabotropic receptor agonist for 1 hour; resting neurons exogenously enriched in lysosphingolipids; and neurons exogenously enriched in lysosphingolipids and exposed to metabotropic receptor agonist for 1 hour. The neurons were scraped in batches of 10^7 (1 Petri dish, approximately 8 cm in diameter, is equivalent to 2 mg membrane protein) and subjected to anaylsis.
Total lipids were removed from the neuron samples by repeated extraction with chloroform:methanol (2:1, vol:vol). The lysosphingolipids were separated from total neuronal lipid in 90 ± 5 % recovery yield (n = 10) by the stepped chromatographic procedure of Van Veldhoven et al. (Anal. Biochem. 183:177-189, 1989). The recovered lysosphingolipids were stably tagged with NBDZF by the rapid procedure of Nozowa et al. (supra). The fluorescence tagged neuronal lysosphingolipids were separated in parallel with reference standards NBDZF-Sph, NBDZF-Psy, and NBDZF-Lsm on high performance silica gel thin layer chromatography plates with acetonitrile:H2O (10:0.5, vol:vol). The highly fluorescent, well separated bands were scraped from the plate. The fluorescence tagged lysosphingolipids are eluted from the scraped silica gel with methanol:1 N HCl (1:0.02, vol:vol). The fluorescence tagged lysosphingolipid eluates were quantitated against reference standards by fluorescence measurement in a Perkin-Elmer LS-5 Fluorescence Spectrometer.
Sphingolipid content of neurons exposed to sphingosine, lysocerebroside, and lysosphingomyelin was examined as follows. A Petri dish containing approximately 10^7 neurons was incubated with 5 µCi [^3H]myo-Ins in 3 ml DMEM overnight to prelabel the phosphoinositide InsP3 may contain. The neurons were washed with PBS and 3 ml of PBS containing 4.5 g/l glucose was added. Preparations of sphingosine, lysocerebroside, lysosphingomyelin (Sigma Chemical Co., St. Louis, MO) and combinations of each were prepared as the hydrochloride salt dissolved in PBS. The lysosphingolipids were added to the Petri dishes to produce a concentration ranging from 0 - 150 µM. The dishes were held at room temperature for 0.5, 1, or 2 hours, then washed with PBS and incubated with 5 Units of trypsin in glucose/PBS for […] at 37°C. Trypsinization removes non-specifically bound lysosphingolipids that may adhere to extracellular plasma membrane protein domains. Non-specific adherence between cationic micelles of lysosphingolipids and the neuronal glycocalyx is avoided by performing the experiments with lysosphingolipid concentrations below the critical micelle concentration. Neurons were analyzed for lysosphingolipid content as described above.

cortical neurons = test: Calcium ion signalling (fura 2) in intact cortical neurons; format: cell-based, chick
Method: Metabotropic receptor function was examined in intact neurons by assaying lysosphingolipid modulation of calcium ion signalling. Approximately 1 X 10^6 cortical neurons were cultured on rectangular L-polylysine-coated coverslips and loaded with lysocerebroside or lysosphingomyelin to a level of 150 ± 20 pmoles per mg protein. The neurons were returned to complete Ham's high glucose medium/DMEM (1:1, vol:vol) and infiltrated with 5 µM fura 2/AM (Molecular Probes, Eugene, OR). Fura 2 is a calcium chelator whose fluorescence absorbance shifts to shorter wavelength upon calcium ion binding is measurable in intact cells. A change in intraneuronal calcium ion concentration was monitored as a change in the fluorescence spectrum.
The neurons were exposed to 10 µM glutamate agonist (for example, ibotenate) for 30 minutes at 37°C. The coverslips were then transferred to quartz cuvettes in medium containing 250 µM sulfinpyrazone to prevent fura 2/AM diffusion. Fluorescence ratios were recorded in a Perkin-Elmer LS-5 Fluorescence Spectrometer thermostatted at 37°C at excitation wavelengths of 340 and 380 nm, and emission measurement at 500 nm. Calcium ion signalling in agonist-stimulated neurons was 3.0 ± 0.2 arbitrary units for ibotenate-exposed neurons.

N[C@@H](CC(=O)O)C(=O)O [Aspartate, aspartate, reference compound]
fold induction at 100 µM [1]: 2.7 ± 0.06

N[C@@H](CCC(=O)O)C(=O)O [Glutamate, glutamate, reference compound]
fold induction at 100 µM [1]: 3.3 ± 0.05

NC(C(=O)O)c1cc(O)no1 (stereo not drawn) [Ibotenate, ibotenate, reference compound]
lysocerebroside content of neurons (cultured neurons): 80 ± 5 | lysosphingomyelin content of neurons (cultured neurons): 52 ± 2 | sphingosine content of neurons (cultured neurons): 85 ± 3 | Calcium ion signalling (cortical neurons): 3.0 ± 0.2 arbitrary units | Ins-P-n [1]: 3.00 ± 0.10^f

CN[C@@H]1C[C@H]2O[C@@](C)([C@@H]1OC)n1c3ccccc3c3c4c(c5c6ccccc6n2c5c31)C(=O)NC4 [staurosporine, reference compound]
influence on the effects of sphingosine, lysocerebroside, or lysosphingomyelin on InsP3 production ([1]; brain neurons responsive to excitatory amino acids, protein kinase C inhibitor): does not influence

Lysosulphatide [reference compound]
inhibitory effect on InsP3 signalling ([1]; chick cortical neurons): without inhibitory effect
